Source: patent US20200038513A1, “MODULATORS OF FAK PROTEOLYSIS AND ASSOCIATED METHODS OF USE” (ARVINAS OPERATIONS, INC., priority 2018, published 2020)

Tested on: MDA-MB-231 cells
Assay: RPPA (reverse phase protein array)
Format: cell-based, human
Conditions: 1000nM
Description: RPPA analysis was performed by MD Anderson Cancer Center RPPA core facility.
Examination of the Molecular Signaling Events) and/or Downstream Pathways Responsible for the Migration and Invasion Effects Observed by Exemplary Compound Treatment. To pinpoint these observations to a molecular signaling event or specific downstream pathway, reverse phase protein array (RPPA) analysis was performed (Table 4).

In the case of `CNC(=O)c1ccc(Nc2ncc(C(F)(F)F)c(NCc3nccnc3N(C)S(C)(=O)=O)n2)cc1` [Defactinib, defactinib, reference compound], the “rel. Protein level, 4E-BP1” value was 115.6%, the “rel. Protein level, 4E-BP1_pS65” value was 91.8% and the “rel. Protein level, 14-3-3-beta” value was 98.4%. The “rel. Protein level, 14-3-3-zeta” value was 102.9%, the “rel. Protein level, 53BP1” value was 111.6% and the “rel. Protein level, A-Raf” value was 108.3%. The “rel. Protein level, ACC1” value was 95.9%, the “rel. Protein level, ACC_pS79” value was 102.5% and the “rel. Protein level, ADAR1” value was 111.8%. The “rel. Protein level, AMPK-a2_pS345” value was 98.1%, the “rel. Protein level, AMPKa” value was 105.6% and the “rel. Protein level, AMPKa_pT172” value was 101.3%. For the same molecule, the “rel. Protein level, AR” value was 103.1%, the “rel. Protein level, ARID1A” value was 100.8% and the “rel. Protein level, ATM” value was 93.9%. The “rel. Protein level, ATM_pS1981” value was 99.4%, the “rel. Protein level, ATR_pS428” value was 93.7% and the “rel. Protein level, Akt” value was 99.2%. For the same molecule, the “rel. Protein level, Akt_pS473” value was 79.3%, the “rel. Protein level, Akt_pT308” value was 97.2% and the “rel. Protein level, Annexin-I” value was 96.1%. For the same molecule, the “rel. Protein level, Annexin-VII” value was 107.8%, the “rel. Protein level, Atg3” value was 98.1% and the “rel. Protein level, Atg7” value was 99.5%. The “rel. Protein level, Aurora-B” value was 91.9%, the “rel. Protein level, Axl” value was 76.0% and the “rel. Protein level, B7-H4” value was 102.6%. For the same molecule, the “rel. Protein level, B-Raf” value was 104.8%, the “rel. Protein level, B-Raf_pS445” value was 108.8% and the “rel. Protein level, BAP1” value was 83.5%. The “rel. Protein level, BRD4” value was 108.7%, the “rel. Protein level, Bad_pS112” value was 103.3% and the “rel. Protein level, Bak” value was 103.1%. The “rel. Protein level, Bax” value was 106.4%, the “rel. Protein level, Bc1-xL” value was 100.4% and the “rel. Protein level, Bc12” value was 112.9%. For the same molecule, the “rel. Protein level, Beclin_l” value was 99.2%, the “rel. Protein level, BiP-GRP78” value was 103.7% and the “rel. Protein level, Bid” value was 109.2%. The “rel. Protein level, Bim” value was 105.6%, the “rel. Protein level, C-Raf” value was 96.5% and the “rel. Protein level, C-Raf_pS338” value was 98.1%. For the same molecule, the “rel. Protein level, CD4” value was 103.7%, the “rel. Protein level, CD20” value was 96.8% and the “rel. Protein level, CD29” value was 101.9%. For the same molecule, the “rel. Protein level, CD31” value was 100.7%, the “rel. Protein level, CD44” value was 100.5% and the “rel. Protein level, CD45” value was 117.4%. The “rel. Protein level, CD49b” value was 105.5%, the “rel. Protein level, CD134” value was 100.5% and the “rel. Protein level, CDK1_pT14” value was 84.4%. For the same molecule, the “rel. Protein level, COG3” value was 105.5%, the “rel. Protein level, Caspase-3” value was 108.3% and the “rel. Protein level, Caspase-7-cleaved-” value was 107.0%. For the same molecule, the “rel. Protein level, Caspase-8” value was 97.2%, the “rel. Protein level, Caveolin-1” value was 135.0% and the “rel. Protein level, Chk2” value was 97.0%. For the same molecule, the “rel. Protein level, Chk2_pT68” value was 106.0%, the “rel. Protein level, Chkl” value was 84.1% and the “rel. Protein level, Chkl_pS296” value was 98.2%. The “rel. Protein level, Claudin-7” value was 97.3%, the “rel. Protein level, Collagen-VI” value was 102.5% and the “rel. Protein level, Connexin-43” value was 86.5%. For the same molecule, the “rel. Protein level, Cox2” value was 144.9%, the “rel. Protein level, Cox-IV” value was 101.8% and the “rel. Protein level, Creb” value was 103.7%. The “rel. Protein level, Cyclin-B1” value was 86.8%, the “rel. Protein level, Cyclin-D1” value was 100.5% and the “rel. Protein level, Cyclin-D3” value was 97.2%. The “rel. Protein level, Cyclin-E1” value was 101.8%, the “rel. Protein level, Cyclophilin-F” value was 85.5% and the “rel. Protein level, D-a-Tubulin” value was 98.2%. For the same molecule, the “rel. Protein level, DJ1” value was 105.3%, the “rel. Protein level, DM-Histone-H3” value was 106.7% and the “rel. Protein level, DM-K9-Histone-H3” value was 108.9%. The “rel. Protein level, DUSP4” value was 135.6%, the “rel. Protein level, E2F1” value was 98.4% and the “rel. Protein level, E-Cadherin” value was 122.5%. The “rel. Protein level, EGFR” value was 93.7%, the “rel. Protein level, EGFR_pY1173” value was 100.8% and the “rel. Protein level, EMA” value was 102.2%. For the same molecule, the “rel. Protein level, ENY2” value was 95.1%, the “rel. Protein level, ER” value was 99.6% and the “rel. Protein level, ER-a_pS118” value was 98.5%. The “rel. Protein level, ERCC1” value was 85.6%, the “rel. Protein level, ERCC5” value was 110.3% and the “rel. Protein level, Elk1_pS383” value was 97.3%. For the same molecule, the “rel. Protein level, Ets-1” value was 90.6%, the “rel. Protein level, FAK” value was 116.1% and the “rel. Protein level, FAK_pY397” value was 93.5%. The “rel. Protein level, FASN” value was 98.1%, the “rel. Protein level, FOXM1” value was 90.3% and the “rel. Protein level, Fibronectin” value was 89.9%. For the same molecule, the “rel. Protein level, FoxO3a” value was 104.9%, the “rel. Protein level, FoxO3a_pS318_S321” value was 99.0% and the “rel. Protein level, G6PD” value was 102.3%. For the same molecule, the “rel. Protein level, GAPDH” value was 104.0%, the “rel. Protein level, GATA3” value was 91.1% and the “rel. Protein level, GATA-6” value was 99.4%. For the same molecule, the “rel. Protein level, GCLM” value was 97.0%, the “rel. Protein level, GCN5L2” value was 94.5% and the “rel. Protein level, GSK-3a-b” value was 101.2%. The “rel. Protein level, GSK-3a-b_pS21_S9” value was 98.8%, the “rel. Protein level, Gab2” value was 94.6% and the “rel. Protein level, Glutamate-D1-2” value was 100.6%. For the same molecule, the “rel. Protein level, Glutaminase” value was 100.6%, the “rel. Protein level, Granzyme-B” value was 102.7% and the “rel. Protein level, Gys” value was 107.0%. For the same molecule, the “rel. Protein level, Gys_pS641” value was 106.2%, the “rel. Protein level, H2AX_pS140” value was 101.9% and the “rel. Protein level, HER2” value was 91.7%. For the same molecule, the “rel. Protein level, HER2_pY1248” value was 101.5%, the “rel. Protein level, HER3” value was 98.5% and the “rel. Protein level, HER3_pY1289” value was 98.2%. For the same molecule, the “rel. Protein level, HES1” value was 97.2%, the “rel. Protein level, HLA-DR-DP-DQ-DX” value was 98.9% and the “rel. Protein level, HSP27” value was 101.4%. For the same molecule, the “rel. Protein level, HSP27_pS82” value was 114.2%, the “rel. Protein level, HSP70” value was 103.2% and the “rel. Protein level, Heregulin” value was 109.2%. The “rel. Protein level, Hexokinase-II” value was 98.0%, the “rel. Protein level, Hif-l-alpha” value was 116.1% and the “rel. Protein level, Histone-H3” value was 123.3%. The “rel. Protein level, IGF1R_pY1135_Y1136” value was 98.7%, the “rel. Protein level, IGFBP2” value was 90.9% and the “rel. Protein level, IGFRb” value was 99.7%. The “rel. Protein level, INPP4b” value was 99.6%, the “rel. Protein level, IR-b” value was 110.0% and the “rel. Protein level, IRF-1” value was 104.1%. The “rel. Protein level, IRS1” value was 96.1%, the “rel. Protein level, JNK2” value was 111.4% and the “rel. Protein level, JNK_pT183_Y185” value was 99.7%. For the same molecule, the “rel. Protein level, Jagged1” value was 107.3%, the “rel. Protein level, Jak2” value was 104.3% and the “rel. Protein level, LC3A-B” value was 102.5%. The “rel. Protein level, LDHA” value was 121.2%, the “rel. Protein level, LRP6_pS1490” value was 109.2% and the “rel. Protein level, Lck” value was 101.9%. For the same molecule, the “rel. Protein level, MAPK_pT202-Y204” value was 98.0%, the “rel. Protein level, MCT4” value was 119.5% and the “rel. Protein level, MDM2_pS166” value was 92.3%. The “rel. Protein level, MEK1” value was 110.2%, the “rel. Protein level, MEK1_p_S217-S221” value was 98.0% and the “rel. Protein level, MERIT40_pS29” value was 91.1%. The “rel. Protein level, MIF” value was 118.6%, the “rel. Protein level, MIG6” value was 133.9% and the “rel. Protein level, MMP2” value was 103.4%. The “rel. Protein level, MMP14-[EP1264Y]” value was 138.0%, the “rel. Protein level, MMP-14” value was 139.1% and the “rel. Protein level, MSH6” value was 99.2%. The “rel. Protein level, MSI2” value was 100.7% and the “rel. Protein level, Mcl-1” value was 101.9%.
